Calls of active or inactive are those of the source. The rule behind the calls is not given here.
Experiments:
[1] = molecular target: T1, Soluble guanylate cyclase alpha1/beta1 complex (Rattus norvegicus) (UniProt P19686+P20595); assay: Stimulation of recombinant rat sGC alpha1/beta1 expressed in CHO cells assessed as formation of cGMP from GTP by measuring concentration for >3-fold increase in the basal luminescence value by luminescence based analysis; type: cell-based; details: filed as activator
[2] = Metabolic stability in rat hepatocytes assessed as clearance measured upto 90 mins by LC-MS/MS analysis; type: ADME, cell-based, Hepatocyte
[3] = system: Rattus norvegicus; assay: Antihypertensive activity against L-NAME treated renin transgenic Wistar rat cardiovascular disease model assessed as reduction in mortality rate at 0.3 mg/kg administered via oral gavage once daily for 21 days; type: functional, organism-based; details: time 21.0 day
[4] = system: Rattus norvegicus; assay: Antihypertensive activity against L-NAME treated renin transgenic Wistar rat cardiovascular disease model assessed as reduction in mortality rate at 3 mg/kg administered via oral gavage once daily for 21 days; type: functional, organism-based; details: time 21.0 day
[5] = system: Rattus norvegicus; assay: Anti-hypertensive activity against L-NAME treated renin transgenic Wistar rat cardiovascular disease model assessed as reduction in plasma BNP level at 0.3 mg/kg administered once daily via oral gavage upto 21 days (reference value: 403+/-325 pg/ml); type: functional; details: time <= 21 day
[6] = system: Rattus norvegicus; assay: Antihypertensive activity in spontaneous hypertensive Wistar rat assessed as decrease in systolic blood pressure at 0.3 mg/kg, iv administered as bolus injection measured for 21 days by tail-cuff method (reference value: -12 mmHg); type: functional; details: time 21 day
[7] = system: Rattus norvegicus; assay: Anti-hypertensive activity against L-NAME treated renin transgenic Wistar rat cardiovascular disease model assessed as change in heart to body weight at 0.3 mg/kg administered once daily via oral gavage upto 21 days (reference value: 4.64+/-0.3 g/Kg); type: functional; details: time <= 21 day
[8] = system: Rattus norvegicus; assay: Anti-hypertensive activity against L-NAME treated renin transgenic Wistar rat cardiovascular disease model assessed as increase in survival at 3 mg/kg administered once daily via oral gavage upto 21 days (reference value: 21%); type: functional; details: time <= 21 day
[9] = system: Rattus norvegicus; assay: Anti-hypertensive activity against L-NAME treated renin transgenic Wistar rat cardiovascular disease model assessed as change in heart to body weight at 3 mg/kg administered once daily via oral gavage upto 21 days (reference value: 4.64+/-0.3 g/Kg); type: functional; details: time <= 21 day
[10] = system: Rattus norvegicus; assay: Antihypertensive activity against L-NAME treated renin transgenic Wistar rat cardiovascular disease model assessed as reduction in blood pressure at 0.3 mg/kg administered via oral gavage once daily for 28 days; type: functional, organism-based; details: time 28.0 day
[11] = system: Rattus norvegicus; assay: Antihypertensive activity in spontaneous hypertensive Wistar rat assessed as decrease in systolic blood pressure at 0.003 mg/kg, iv administered as bolus injection measured for 21 days by tail-cuff method (reference value: -12 mmHg); type: functional; details: time 21 day
[12] = system: Rattus norvegicus; assay: Antihypertensive activity against L-NAME treated renin transgenic Wistar rat cardiovascular disease model assessed as reduction in blood pressure at 3 mg/kg administered via oral gavage once daily for 28 days; type: functional, organism-based; details: time 28.0 day
[13] = system: Rattus norvegicus; assay: Anti-hypertensive activity against L-NAME treated renin transgenic Wistar rat cardiovascular disease model assessed as increase in plasma cGMP level at 0.3 mg/kg administered once daily via oral gavage upto 21 days (reference value: 572+/-350 pmol/mL); type: functional; details: time <= 21 day
[14] = system: Rattus norvegicus; assay: Anti-hypertensive activity against L-NAME treated renin transgenic Wistar rat cardiovascular disease model assessed as reduction in plasma BNP level at 3 mg/kg administered once daily via oral gavage upto 21 days (reference value: 403+/-325 pg/ml); type: functional; details: time <= 21 day
[15] = system: Rattus norvegicus; assay: Antihypertensive activity in spontaneous hypertensive Wistar rat assessed as decrease in systolic blood pressure at 0.03 mg/kg, iv administered as bolus injection measured for 21 days by tail-cuff method (reference value: -12 mmHg); type: functional; details: time 21 day
[16] = system: Rattus norvegicus; assay: Antihypertensive activity against L-NAME treated renin transgenic Wistar rat cardiovascular disease model assessed as body weight gain at 0.3 mg/kg administered via oral gavage once daily for 21 days; type: functional, organism-based; details: time 21.0 day
[17] = system: Rattus norvegicus; assay: Anti-hypertensive activity against L-NAME treated renin transgenic Wistar rat cardiovascular disease model assessed as increase in survival at 0.3 mg/kg administered once daily via oral gavage upto 21 days (reference value: 21%); type: functional; details: time <= 21 day
[18] = system: Rattus norvegicus; assay: Antihypertensive activity in spontaneous hypertensive Wistar rat assessed as decrease in systolic blood pressure at 0.3 mg/kg, iv administered as bolus injection measured for 21 days by tail-cuff method; type: functional; details: time 21 day
[19] = system: Rattus norvegicus; assay: Antihypertensive activity in spontaneous hypertensive Wistar rat assessed as decrease in systolic blood pressure iv administered as bolus injection measured for 21 days by tail-cuff method; type: functional, organism-based; details: dose 0.3-3 mg/kg, time 21.0 day
[20] = system: Rattus norvegicus; assay: Antihypertensive activity in spontaneous hypertensive Wistar rat model assessed as reduction in blood pressure at 1 mg/kg, po measured after 24 hrs by radiotelemetry analysis; type: functional, organism-based
[21] = system: Rattus norvegicus; assay: Antihypertensive activity in spontaneous hypertensive Wistar rat model assessed as reduction in blood pressure at 0.3 to 3.0 mg/kg, po measured after 2 hrs by radiotelemetry analysis; type: functional; parameters: scale not given: the % may be the effect or the level left; details: dose 0.3-3 mg/kg
[22] = system: Rattus norvegicus; assay: Anti-hypertensive activity against L-NAME treated renin transgenic Wistar rat cardiovascular disease model assessed as change in kidney to body weight at 0.3 mg/kg administered once daily via oral gavage upto 21 days (reference value: 3.79 +/- 0.1 g/kg); type: functional; details: time <= 21 day
[23] = system: Rattus norvegicus; assay: Anti-hypertensive activity against L-NAME treated renin transgenic Wistar rat cardiovascular disease model assessed as increase in plasma cGMP level at 3 mg/kg administered once daily via oral gavage upto 21 days (reference value: 572+/-350 pmol/mL); type: functional; details: time <= 21 day
[24] = system: Rattus norvegicus; assay: Antihypertensive activity against L-NAME treated renin transgenic Wistar rat cardiovascular disease model assessed as body weight gain at 3 mg/kg administered via oral gavage once daily for 21 days; type: functional, organism-based; details: time 21.0 day
[25] = system: Rattus norvegicus; assay: Antihypertensive activity in spontaneous hypertensive Wistar rat assessed as decrease in systolic blood pressure at 0.1 mg/kg, iv administered as bolus injection measured for 21 days by tail-cuff method (reference value: -12 mmHg); type: functional; details: time 21 day
[26] = system: Rattus norvegicus; assay: Antihypertensive activity in spontaneous hypertensive Wistar rat model assessed as reduction in blood pressure at 0.3 mg/kg, po measured after 24 hrs by radiotelemetry analysis; type: functional, organism-based
[27] = system: Aorta; assay: Vasorelaxant activity in New Zealand White rabbits aortic rings assessed as reduction in phenylephrine-induced contraction measured after 30 mins; type: functional, tissue-based; details: Oryctolagus cuniculus, 0.5 h
[28] = system: Rattus norvegicus; assay: Antihypertensive activity in spontaneous hypertensive Wistar rat assessed as decrease in systolic blood pressure at 0.01 mg/kg, iv administered as bolus injection measured for 21 days by tail-cuff method (reference value: -12 mmHg); type: functional; details: time 21 day
[29] = system: Rattus norvegicus; assay: Anti-hypertensive activity against L-NAME treated renin transgenic Wistar rat cardiovascular disease model assessed as change in kidney to body weight at 3 mg/kg administered once daily via oral gavage upto 21 days (reference value: 3.79 +/- 0.1 g/kg); type: functional; details: time <= 21 day
[30] = system: Rattus norvegicus; assay: Antihypertensive activity in spontaneous hypertensive Wistar rat model assessed as reduction in blood pressure po administered bolus injection by radiotelemetry analysis; type: functional, organism-based; details: dose 0.3 mg/kg
[31] = molecular target: T1, Soluble guanylate cyclase alpha1/beta1 complex (Rattus norvegicus); assay: Stimulation of recombinant rat sGC alpha1/beta1 expressed in CHO cells assessed as formation of cGMP from GTP in presence of NO donor SNAP by measuring basal luminescence value by luminescence based analysis; type: cell-based; details: filed as activator, dose 300.0 nM
[32] = system: CHO; assay: Stimulation of recombinant rat sGC alpha1/beta1 expressed in CHO cells assessed as formation of cGMP from GTP in presence of […] ODQ by measuring basal luminescence value by luminescence based analysis; type: cell-based; details: dose 300.0 nM, time 3.0 hrs

## Cc1nc2c(OCC3CCC3)cccn2c1C(=O)NCCC1(O)CCCCC1
[1]
  MEC: 3 µM

## CCCC[C@H](CO)NC(=O)c1c(C2CC2)nc2c(OCc3c(F)cccc3F)cccn12
[2]
  CLhep predicted: 36.7 mL/min/kg
[1]
  MEC: 0.3 µM

## CC[C@](C)(N)CNC(=O)c1c(C)nc2c(OCc3c(F)cccc3F)cc(C)cn12
[3]
  Activity: Active
[4]
  Activity: Active
[5]
  Activity: 284 pg/mL
[6]
  Activity: -86 mmHg
[7]
  Activity: 4.03 g/kg
[8]
  Activity: 78%
[9]
  Activity: 3.64 g/kg
[10]
  Activity: inactive
[11]
  Activity: -19 mmHg
[12]
  Activity: Active
[13]
  Activity: 1018 pmol/mL
[14]
  Activity: 97 pg/mL
[15]
  Activity: -49 mmHg
[16]
  Activity: Active
[17]
  Activity: 44%
[18]
  Activity: -86 mmHg
[19]
  Activity: Dose-Dependent Effect
[20]
  Activity: Active
[21]
  Activity: 10%
[22]
  Activity: 3.72 g/kg
[23]
  Activity: 2798 pmol/mL
[24]
  Activity: Active
[25]
  Activity: -70 mmHg
[26]
  Activity: Active
[27]
  IC50: 27 nM
[28]
  Activity: -22 mmHg
[29]
  Activity: 3.72 g/kg
[30]
  Activity: Dose-Dependent Effect

## Cc1nc2c(OCC3CCC3)cccn2c1C(=O)NCc1ccc(Cl)cc1
[31]
  Drug metabolism: Active
[27]
  IC50: 840 nM
[32]
  Drug metabolism: inactive
[2]
  CLhep predicted: 60 mL/min/kg
[1]
  MEC: 1 µM

## CCCC[C@H](CO)NC(=O)c1c(C)nc2c(OCc3c(F)cccc3F)cc(C3CC3)cn12
[2]
  CLhep predicted: 51.7 mL/min/kg
[1]
  MEC: 1 µM

## CCCC[C@H](CO)NC(=O)c1c(C)nc2c(OCCC(C)C)cccn12
[2]
  CLhep predicted: 48.3 mL/min/kg
[1]
  MEC: 1 µM

## CCCC[C@H](CO)NC(=O)c1c(C)nc2c(OCc3c(F)cccc3F)cc(Cl)cn12
[2]
  CLhep predicted: 48.3 mL/min/kg
[1]
  MEC: 0.01 µM

## CCCC[C@H](CO)NC(=O)c1c(C)nc2c(OCc3ccccc3)cccn12
[2]
  CLhep predicted: 38.3 mL/min/kg
[1]
  MEC: 1 µM

## Cc1nc2c(OCC3CCC3)cccn2c1C(=O)NCCOCCO
[2]
  CLhep predicted: 25 mL/min/kg
[1]
  MEC: 3 µM
